Assay results reported in patent publication US20100056637A1, “TREATMENT METHODS USING TRIARYL METHANE COMPOUNDS” (Icagen, Inc., priority 2005, published 2010).
Read-outs that look alike come from different tables or passages of the source.

What was measured:
recombinant human KCa3.1 = recombinant human KCa3.1 (Homo sapiens, UniProt O15554); assay: Whole patch clamp of potassium currents in CHO cells stably expressing recombinant human KCa3.1; format: cell-based; settings: 1000 nM Senicapoc; FIG. 2 right panel; cell type not stated
[1] = test system: human lung mast cells (HLMC); assay: HLMC chemotaxis (mast cell migration) assay, Transwell system; format: cell-based; settings: airway smooth muscle-conditioned media; 10, 100, 1000 nM; 3 hours
Procedure: Mast cell migration studies were then performed by a method similar to as described in the method of Cruse et al. (Thorax. 2006 61:880-5). Briefly, HLMC chemotaxis assays were performed using the Transwell system with 24 wells. Airway smooth muscle-conditioned media was placed in the lower wells. […] After incubating the cells for 3 hours at 37° C., the number of HLMC in the bottom well were counted using Kimura stain in a hemocytometer. HLMC migration was calculated as the fold increase of migrated cells in the test wells compared with the negative control containing no chemoattractant in the lower well (FIG. 1).

A. suum sensitized sheep = assay: Ascaris suum allergen challenge model of asthma in sheep; format: in vivo
Procedure: Briefly, baseline lung resistance (RL) and carbachol concentration response curves were obtained prior to A. suum challenge in sheep. […] Lung resistance was subsequently measured at 0, 1, 2, 3, and 4 hours post allergen challenge to assess early airway responses and at 5, 6, 6.5, 7, 7.5 and 8 hours to assess late airway responses. At 24 hours post challenge, airway hyper-reactivity was determined based on responses to increasing doses of carbachol. Data were analyzed by a one way ANOVA followed by Dunnett's post hoc test when more than 2 groups were compared, or by a t-test when only 2 groups were compared.

[2] = Pharmacokinetics of Senicapoc in sheep plasma; format: in vivo; settings: 30 mg/kg po b.i.d.; relative to levels required to block KCa3.1
Procedure: Since statistically significant effects were observed on lung resistance and airway hyper-reactivity following the 30 mg/kg dose, this level of exposure is sufficient to achieve efficacy in the sheep model. FIG. 7 illustrates exposure in man following administration of a range of doses. The average efficacious plasma level from the sheep model is illustrated by the dashed line.

[3] = Inhaled allergen challenge in human subjects, placebo vs Senicapoc, 13 days; format: in vivo; settings: for fraction of exhaled nitric oxide: after 13 days of treatment, no change in placebo group
Procedure: FIG. 9. FIG. 9A study design. […] FIG. 9B. Change in FEV1 over time past allergen challenge (AC) in human subjects. The late allergen response (LAR) is the decline in FEV1 4 to 10 hours after patients were challenged with an inhaled allergen. The magnitude of the decline in LAR is quantified as the area bounded by the baseline FEV1 (0%), and the actual FEV1 measurements between hours 4 and 10. Subjects randomized to 13 days of treatment with placebo had no change in the LAR (left panel). […] By analysis of co-variance, the difference in LAR at Day 13 between the two treatment groups was 29%.
By analysis of co-variance, the difference in late airway responsiveness between the two treatment groups was 29% (see, FIG. 9B). In addition, the fraction of nitric oxide exhaled by Senicapoc-treated group declined with no change seen in the placebo group (data not shown).

Half-life in blood = format: in vitro ADME; settings: including human blood
Excerpt: Triphenylacetamide-based K^+-channel blockers are promising candidates for the treatment of sickle cell disease (SCD) as discussed in U.S. Pat. No. 6,288,122 which is herein incorporated by reference. In addition, studies indicate that triphenylacetamide-based inhibitors are potential candidate drugs for the treatment of inflammatory conditions.

[4] = cited from earlier work; for mean Cmax / mean total systemic dose / oral clearance rate / terminal half-life: patients with sickle cell disease

For `NC(=O)C(c1ccccc1)(c1ccc(F)cc1)c1ccc(F)cc1` [Senicapoc, 2,2-bis(4-fluorophenyl)-2-phenylacetamide], the “channel inhibition with varied voltage” value (recombinant human KCa3.1) was “nearly complete channel inhibition”, the “HLMC migration resulting from inflammatory stimuli” value [1] was “inhibits” and the “reversal of the hyper-reactivity to carbachol” value (A. suum sensitized sheep; 30 mg/kg PO for 4 days) was “Complete reversal”. The “apparent reduction in peak early response” value (A. suum sensitized sheep; 30 mg/kg PO, not statistically significant) was 33%, the “average late allergen responses (lung resistance)” value (A. suum sensitized sheep; 5-8 hours after allergen challenge, oral, IV and inhalation routes) was “significantly attenuates” and the “hyper-reactivity to aerosolized carbachol” value (A. suum sensitized sheep; 24 hours post A. suum challenge, all three routes of administration) was “significantly reduced”. For the same compound, the “reversal of the hyper-reactivity to carbachol” value (A. suum sensitized sheep; acute 10 mg/kg IV dosing) was “Complete reversal”, the “peak early airway responses” value (A. suum sensitized sheep; immediately after allergen challenge, 10 mg/kg IV) was “significantly reduced” and the “plasma exposure corrected for protein binding” value [2] was “sustained levels significantly above those required to block KCa3.1”. The “difference in late airway responsiveness (LAR, FEV1 decline 4 to 10 hours) between Senicapoc and placebo groups” value ([3]; Day 13, 80 mg BID for three days, then 40 mg daily, analysis of co-variance) was 29%, the “fraction of exhaled nitric oxide” value [3] was “declined” and the “fraction of exhaled nitric oxide” value ([3]; listed as senicapoc) was “decreased”. For the same compound, the half-life in blood (Half-life in blood) was “long half-life”, the mean elimination half-life ([4]; oral dose, across three clinical studies, 68 patients) was 12 to 17 days and the “mean Cmax” value ([4]; 50 mg single dose) was 59.1 ng/mL. The “mean total systemic dose” value ([4]; 50 mg single dose) was 11,826 ng·hr/ml, the oral clearance rate ([4]; 50 mg single dose) was 4.75 L/h and the terminal half-life ([4]; 50 mg single dose) was 15.4 days. For the same compound, the “mean Cmax” value ([4]; 100 mg single dose) was 108.7 ng/mL, the “mean total systemic dose” value ([4]; 100 mg single dose) was 19,696 ng·hr/ml and the oral clearance rate ([4]; 100 mg single dose) was 6.1 L/h. For the same compound, the terminal half-life ([4]; 100 mg single dose) was 9.12 days, the “mean Cmax” value ([4]; 150 mg single dose) was 109.1 ng/mL and the “mean total systemic dose” value ([4]; 150 mg single dose) was 30,675 ng·hr/ml. For the same compound, the oral clearance rate ([4]; 150 mg single dose) was 5.8 L/h, the terminal half-life ([4]; 150 mg single dose) was 12.4 days and the “drug-related serious adverse events” value ([4]; phase I clinical studies) was “no drug-related serious adverse events”.
